Measured values: publication PMC6881293, “Nanomolar-potency ‘co-potentiator’ therapy for cystic fibrosis caused by a defined subset of minimal function CFTR mutants” (Scientific Reports, 2019)

Key:
Format in all cases: cell-based
W1282X-CFTR [1] = biological target: T1, W1282X-CFTR (Homo sapiens, UniProt P13569); assay: Short-circuit current in FRT cells expressing W1282X-CFTR; details: VX-809-corrected W1282X-CFTR-expressing FRT cells; for increase in VX-770 current: forskolin and 5 μM VX-770; for EC50: in the presence of forskolin and 5 μM VX-770
T1 construct: expressed in transfected cells
Experimental: Given the utility of co-potentiators as possible CF therapeutics for several minimal function CFTR mutants, a screen was done to identify novel co-potentiator scaffolds. Screening used FRT cells stably expressing W1282X-CFTR and the halide-sensitive EYFP-H148Q/I152L/F46L (YFP) that were treated for 24 hours with 3 μM VX-809 to increase CFTR1281 cell surface expression (Fig. 4A). Just prior to assay cells were treated for 10 min with test compounds at 25 μM together with 20 μM forskolin and 15 nM VX-770. CFTR channel activity was deduced from the initial rate of YFP fluorescence quenching in response to addition of iodide-substituted phosphate buffered saline. Primary screening of 120,000 drug-like synthetic small molecules identified 212 compounds giving channel activity >50% of that produced by forskolin, VX-770 and 20 μM ASP-11 (Fig. 4B). […] Each of these compounds added to VX-809-corrected FRT cells expressing W1282X-CFTR produced little current without VX-770 (Fig. 4E).
Figure 4 Novel co-potentiators identified by high-throughput screening. (A) Assay design. (B) Summary of screening workflow and results. (C) Chemical structures of novel co-potentiators identified by screening. (D) Representative short-circuit current data in FRT cells expressing W1282X-CFTR. Concentrations: 20 μM forskolin (fsk), 5 μM VX-770 (n = 3). (E) Effects of sequential addition of 20 μM forskolin followed by 20 μM of A-01, B-01, C-01 and D-01, and 5 μM of VX-770 in FRT cells expressing W1282X-CFTR. CFTRinh-172 was used at 10 μM in all experiments.
(§1) Short-circuit current was measured on cells cultured on Snapwell clear permeable supports (Corning) as described[10],[11]. Hemichambers were connected to a DVC-1000 voltage clamp (World Precision Instruments Inc., Sarasota, FL) via Ag/AgCl electrodes and 3 M KCl agar bridges for recording of the short-circuit current. For human airway epithelial cells, symmetrical HCO3^−-buffered solutions (in mM: 120 NaCl, 5 KCl, 1 MgCl2, 1 CaCl2, 5 Hepes, 25 NaHCO3, 10 glucose, pH 7.4) for basolateral and apical side were used. For FRT cells, the basolateral membrane was permeabilized with 250 μg/ml amphotericin B, and experiments were done with a chloride gradient using a HCO3^−-buffered solutions (Basolateral (mM): 120 NaCl, 5 KCl, 1 MgCl2, 1 CaCl2, 5 Hepes, 25 NaHCO3, 10 glucose, pH 7.4; apical (mM): 60 NaCl, 60 mM sodium gluconate, 5 KCl, 1 MgCl2, 1 CaCl2, 5 Hepes, 25 NaHCO3, 10 glucose, pH 7.4). All cells were equilibrated with 95% O2, 5% CO2 and maintained at 37 °C during experiments.

W1282X-CFTR [2] = biological target: T1, W1282X-CFTR; assay: Structure-activity testing of analogs in FRT cells expressing W1282X-CFTR
Experimental: To establish structure-activity relationships, 240 commercially available piperidinepyridoindole analogs and 160 pyrazoloquinoline analogs were tested in FRT cells expressing W1282X-CFTR. In general, the methoxy substituent on the 4-position (R^3) on the pyridoindole ring increased potency (compare A01 vs A534). N-methylation on the pyridoindole ring abolished activity (compare A534 vs A600). For substituent R^1 on the piperidine ring, substituted benzyl gave greatest activity (A061 and A662). Other R^1 substituents, including sulfonamide (A145), alkyl (A764) and carbocyclic (A714), reduced activity. Changing the benzylic carbon from methylene (CH2) to ketone (C=O) abolished activity (A815, A350 and A956).
For R^3, pyridine (D003), benzyl (D035) and substituted methyl-pyrazole (D086) abolished activity. […] The D123 pyrazoloquinoline with R^3 substituted with thiophene-quinoline heterocycle gave the best potency.

N1303K-CFTR = biological target: T2, N1303K-CFTR (Homo sapiens, UniProt P13569, N1303K); assay: Short-circuit current in FRT cells expressing N1303K-CFTR; details: N1303K-CFTR FRT cells; for short-circuit current response when added after VX-770: 20 μM forskolin, 5 μM VX-770, then 20 μM compound
T2 construct: expressed in transfected cells
Experimental: Based on prior studies[10],[11],[20], we hypothesized that distinct binding sites may be required to bind a potentiator and co-potentiator to rescue channel activity of CFTR mutants. We defined the potentiator VX-770 as a Class I compound, and co-potentiator ASP-11 as a Class II compound (Fig. 3A,D). Short-circuit current measurements in N1303K-CFTR-expressing FRT cells confirmed synergy when ASP-11 was added after VX-770 (Fig. 3Bi). […] In each experiment, CFTRinh-172 confirmed that current was from CFTR.
Figure 3 Definition of Class I and II CFTR potentiators. (A) Chemical structures of Class I and II potentiators. (B) Short-circuit current in FRT cells expressing N1303K-CFTR in response to forskolin and indicated potentiators. Concentrations: 20 μM forskolin, 5 μM VX-770, 20 μM ASP-11, 20 μM GLPG1837, 20 μM P2, 20 μM P3, 20 μM P5, 20 μM W1282Xpot-C01, and 10 μM CFTRinh-172. C. Short-circuit current in FRT cells expressing Q1313X-CFTR in response to forskolin and indicated potentiators. Concentrations: as in panel B, and 25 μM apigenin. (D) Summary of relative N1303K-CFTR activation in response to combinations of Class I and Class II potentiators. Mean ± S.E.M., n = 3. TEXT PRINTED IN THE PICTURE: (D) VX-770: N1303K-CFTR: P5: 1% ±1%; N1303K-CFTR: GLPG 1837: 10% ±5%; N1303K-CFTR: ASP-11: 100% ±3%; N1303K-CFTR: apigenin: 100% ±5% | (D) P5: N1303K-CFTR: VX-770: 1% ±1%; N1303K-CFTR: GLPG 1837: 2% ±2%; N1303K-CFTR: ASP-11: 52% ±5%; N1303K-CFTR: apigenin: 56% ±5% | (D) GLPG 1837: N1303K-CFTR: VX-770: 0% ±5%; N1303K-CFTR: P5: 2% ±2%; N1303K-CFTR: ASP-11: 100% ±4%; N1303K-CFTR: apigenin: 98% ±5% | (D) ASP-11: N1303K-CFTR: VX-770: 100% ±3%; N1303K-CFTR: P5: 47% ±4%; N1303K-CFTR: GLPG 1837: 100% ±5%; N1303K-CFTR: apigenin: 7% ±3% | (D) apigenin: N1303K-CFTR: VX-770: 100% ±5%; N1303K-CFTR: P5: 50% ±5%; N1303K-CFTR: GLPG 1837: 100% ±5%; N1303K-CFTR: ASP-11: 5% ±2% DOUBTS OF THE COPYIST ABOUT THIS PICTURE: Panel D is a matrix of pairs of substances (row substance combined with column substance). The picture prints no name for the measure, only % values and a 0%–100% colour scale. / The print in panel D is small, so 3, 5, 6 and 8 are hard to tell apart in these values. / VX-770 / GLPG 1837: ±5% could be ±3% / VX-770 / ASP-11: ±3% could be ±5% / VX-770 / apigenin: ±5% could be ±3% / P5 / ASP-11: 52% ±5%, digits uncertain / P5 / apigenin: 56% could be 58%, and ±5% is uncertain / GLPG 1837 / VX-770: 0% ±5%, error digit uncertain / GLPG 1837 / apigenin: 98% could be 96%, and ±5% is uncertain / ASP-11 / VX-770: ±3% could be ±5% / ASP-11 / GLPG 1837: ±5% could be ±3% / ASP-11 / apigenin: 7% ±3%, error digit uncertain / apigenin / VX-770: ±5% could be ±3% / apigenin / P5: 50% ±5%, digits uncertain / apigenin / GLPG 1837: ±5% could be ±3% / apigenin / ASP-11: 5% ±2%, the 5 is uncertain
(§2) Figures 5C,D show data in N1303K- and Q1313X-expressing FRT cells.
as §1

Q1313X-CFTR = biological target: T3, Q1313X-CFTR (Homo sapiens, UniProt P13569); assay: Short-circuit current in FRT cells expressing Q1313X-CFTR; details: Q1313X-CFTR FRT cells, 20 μM forskolin; for short-circuit current response when added after VX-770: 5 μM VX-770, 20 μM P2, P3, P5, ASP-11, 25 μM apigenin
T3 construct: expressed in transfected cells
Experimental: As shown in Fig. 1C and summarized in Fig. 2, ASP-11 acted in synergy with VX-770 to increase chloride current in FRT cells expressing the NBD2 mutations I1234del- and Q1313X-CFTR by ~3–9-fold compared to VX-770. I1234del- and Q1313X-CFTR-expressing cells were also treated with VX-809 for 24 hours (to consider the effect of available CFTR therapeutics) with 2–3-fold greater currents observed.
Studies on FRT cells expressing Q1313X-CFTR produced similar data (Fig. 3C).
as §2, §1

[3] = Table 1, 100% Vmax corresponds to 20 μM ASP-11
[4] = Table 1, piperidine-pyridoindole analogs

T3 sequence (P13569 1-1312 limits assumed): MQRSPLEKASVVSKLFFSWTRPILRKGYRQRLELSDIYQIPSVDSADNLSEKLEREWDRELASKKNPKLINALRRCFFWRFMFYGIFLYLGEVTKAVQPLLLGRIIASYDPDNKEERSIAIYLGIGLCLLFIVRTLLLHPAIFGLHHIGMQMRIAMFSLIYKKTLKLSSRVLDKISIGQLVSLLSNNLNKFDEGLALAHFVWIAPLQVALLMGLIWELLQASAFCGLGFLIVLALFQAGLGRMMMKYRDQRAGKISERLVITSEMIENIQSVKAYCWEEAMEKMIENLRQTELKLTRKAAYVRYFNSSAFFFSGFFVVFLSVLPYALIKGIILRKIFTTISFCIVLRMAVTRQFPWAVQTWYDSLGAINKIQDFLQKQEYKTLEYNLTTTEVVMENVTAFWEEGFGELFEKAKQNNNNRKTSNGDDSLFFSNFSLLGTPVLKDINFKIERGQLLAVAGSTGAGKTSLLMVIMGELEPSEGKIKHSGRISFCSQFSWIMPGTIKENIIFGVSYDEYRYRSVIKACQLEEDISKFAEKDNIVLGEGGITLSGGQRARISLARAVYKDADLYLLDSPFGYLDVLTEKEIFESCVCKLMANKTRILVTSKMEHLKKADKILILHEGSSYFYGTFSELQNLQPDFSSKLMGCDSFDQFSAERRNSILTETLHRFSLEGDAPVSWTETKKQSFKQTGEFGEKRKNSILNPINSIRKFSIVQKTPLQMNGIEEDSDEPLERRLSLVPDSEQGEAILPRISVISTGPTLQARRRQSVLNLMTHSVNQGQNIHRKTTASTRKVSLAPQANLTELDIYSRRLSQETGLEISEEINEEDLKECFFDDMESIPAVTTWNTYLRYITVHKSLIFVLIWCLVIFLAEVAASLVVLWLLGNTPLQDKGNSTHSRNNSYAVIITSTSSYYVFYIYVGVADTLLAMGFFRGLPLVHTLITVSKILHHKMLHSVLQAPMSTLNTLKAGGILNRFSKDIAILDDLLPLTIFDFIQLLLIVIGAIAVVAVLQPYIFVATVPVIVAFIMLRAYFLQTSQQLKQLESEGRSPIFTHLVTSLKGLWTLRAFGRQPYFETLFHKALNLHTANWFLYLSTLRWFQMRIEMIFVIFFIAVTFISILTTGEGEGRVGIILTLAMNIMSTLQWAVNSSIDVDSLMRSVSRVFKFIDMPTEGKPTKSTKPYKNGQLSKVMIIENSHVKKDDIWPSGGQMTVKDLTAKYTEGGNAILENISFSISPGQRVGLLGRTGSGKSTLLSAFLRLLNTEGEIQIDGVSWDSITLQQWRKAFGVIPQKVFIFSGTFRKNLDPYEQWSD
T1 sequence (P13569 1-1281 limits assumed): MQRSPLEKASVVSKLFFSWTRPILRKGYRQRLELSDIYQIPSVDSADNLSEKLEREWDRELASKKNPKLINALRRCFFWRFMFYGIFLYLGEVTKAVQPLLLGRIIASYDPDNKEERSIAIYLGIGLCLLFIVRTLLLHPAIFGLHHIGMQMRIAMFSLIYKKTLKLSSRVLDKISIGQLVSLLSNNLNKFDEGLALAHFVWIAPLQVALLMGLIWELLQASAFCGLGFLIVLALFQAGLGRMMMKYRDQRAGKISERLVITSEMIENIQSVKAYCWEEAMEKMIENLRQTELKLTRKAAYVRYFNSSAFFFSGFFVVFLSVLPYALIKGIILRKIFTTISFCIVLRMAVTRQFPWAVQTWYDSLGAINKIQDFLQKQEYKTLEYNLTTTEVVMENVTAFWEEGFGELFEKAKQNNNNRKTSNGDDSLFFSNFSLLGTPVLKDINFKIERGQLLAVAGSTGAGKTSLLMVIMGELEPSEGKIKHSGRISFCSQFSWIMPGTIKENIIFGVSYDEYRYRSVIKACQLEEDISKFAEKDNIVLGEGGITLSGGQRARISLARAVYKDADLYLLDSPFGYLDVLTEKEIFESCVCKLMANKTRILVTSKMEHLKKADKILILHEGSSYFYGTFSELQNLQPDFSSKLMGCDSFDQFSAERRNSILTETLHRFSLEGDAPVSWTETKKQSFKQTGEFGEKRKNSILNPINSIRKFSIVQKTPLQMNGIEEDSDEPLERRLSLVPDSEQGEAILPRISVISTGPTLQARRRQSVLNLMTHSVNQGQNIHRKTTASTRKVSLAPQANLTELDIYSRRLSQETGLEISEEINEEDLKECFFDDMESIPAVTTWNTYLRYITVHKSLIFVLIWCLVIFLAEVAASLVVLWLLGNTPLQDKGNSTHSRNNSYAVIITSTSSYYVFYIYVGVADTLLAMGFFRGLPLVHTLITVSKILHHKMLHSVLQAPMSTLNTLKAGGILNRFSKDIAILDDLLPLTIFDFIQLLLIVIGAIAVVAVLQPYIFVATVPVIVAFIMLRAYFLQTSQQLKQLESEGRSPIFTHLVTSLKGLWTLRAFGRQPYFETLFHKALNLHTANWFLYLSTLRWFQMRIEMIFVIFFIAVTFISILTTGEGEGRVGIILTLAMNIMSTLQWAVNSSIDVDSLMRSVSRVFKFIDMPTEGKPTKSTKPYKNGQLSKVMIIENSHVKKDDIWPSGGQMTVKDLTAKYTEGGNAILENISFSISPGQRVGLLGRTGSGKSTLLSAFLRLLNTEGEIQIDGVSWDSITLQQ
T2 sequence (P13569 whole entry N1303K): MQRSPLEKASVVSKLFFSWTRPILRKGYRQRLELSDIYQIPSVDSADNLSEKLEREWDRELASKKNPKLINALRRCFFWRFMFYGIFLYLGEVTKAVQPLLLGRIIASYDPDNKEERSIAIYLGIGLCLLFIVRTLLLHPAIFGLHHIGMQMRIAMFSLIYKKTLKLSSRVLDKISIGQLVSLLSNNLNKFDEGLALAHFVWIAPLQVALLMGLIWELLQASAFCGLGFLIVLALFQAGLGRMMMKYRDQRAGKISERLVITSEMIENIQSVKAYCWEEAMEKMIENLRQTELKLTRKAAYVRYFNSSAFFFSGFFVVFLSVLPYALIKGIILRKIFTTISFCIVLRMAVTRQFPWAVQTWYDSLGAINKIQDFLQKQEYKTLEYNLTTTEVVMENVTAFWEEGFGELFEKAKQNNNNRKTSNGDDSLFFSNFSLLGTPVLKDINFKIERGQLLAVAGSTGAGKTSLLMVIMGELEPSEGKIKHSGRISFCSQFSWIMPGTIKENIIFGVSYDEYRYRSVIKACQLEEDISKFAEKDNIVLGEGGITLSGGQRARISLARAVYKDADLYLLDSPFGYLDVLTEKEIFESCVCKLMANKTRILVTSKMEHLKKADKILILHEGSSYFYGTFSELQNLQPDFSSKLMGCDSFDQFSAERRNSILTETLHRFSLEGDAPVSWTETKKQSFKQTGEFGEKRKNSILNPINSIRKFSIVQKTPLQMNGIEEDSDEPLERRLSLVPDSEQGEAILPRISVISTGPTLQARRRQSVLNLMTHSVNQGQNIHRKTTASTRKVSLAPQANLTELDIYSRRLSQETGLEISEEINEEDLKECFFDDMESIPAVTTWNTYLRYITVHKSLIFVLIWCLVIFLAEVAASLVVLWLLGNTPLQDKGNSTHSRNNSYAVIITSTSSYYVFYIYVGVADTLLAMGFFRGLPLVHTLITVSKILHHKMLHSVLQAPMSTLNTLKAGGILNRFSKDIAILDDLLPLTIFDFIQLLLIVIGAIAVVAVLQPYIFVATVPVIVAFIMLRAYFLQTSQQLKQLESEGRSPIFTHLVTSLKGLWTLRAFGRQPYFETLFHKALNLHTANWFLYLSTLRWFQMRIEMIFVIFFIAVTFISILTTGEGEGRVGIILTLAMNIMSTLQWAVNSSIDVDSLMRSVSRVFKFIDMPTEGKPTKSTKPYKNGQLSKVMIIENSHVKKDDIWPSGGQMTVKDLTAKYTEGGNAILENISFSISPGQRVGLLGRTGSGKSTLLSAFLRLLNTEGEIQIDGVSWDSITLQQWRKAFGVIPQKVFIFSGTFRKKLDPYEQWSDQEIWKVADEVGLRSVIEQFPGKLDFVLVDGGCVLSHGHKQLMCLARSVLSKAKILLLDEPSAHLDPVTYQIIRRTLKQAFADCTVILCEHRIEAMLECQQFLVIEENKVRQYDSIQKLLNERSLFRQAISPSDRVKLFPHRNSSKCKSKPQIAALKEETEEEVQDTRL

Structure (SMILES): O=C(CN1C(=O)CC(c2cccs2)=Nc2ccccc21)NCc1ccc(Cl)cc1 [CP-B01]
- increase in VX-770 current (W1282X-CFTR [1]): ~ 6 fold
- EC50 (W1282X-CFTR [1]): 5 µM

Structure (SMILES): CCCS(=O)(=O)N1CCCc2ccc(NS(=O)(=O)c3cccs3)cc21 [CP-C01]
- increase in VX-770 current (W1282X-CFTR [1]): ~ 6 fold
- EC50 (W1282X-CFTR [1]): 8 µM

Structure (SMILES): COc1cccc(CN2CCC3(CC2)NCCc2c3[nH]c3ccc(OC)cc23)c1 [Compound A01]
- increase in VX-770 current (W1282X-CFTR [1]): ~ 6 fold
- EC50 (W1282X-CFTR [1]): 10 µM
- Relative Vmax (%) (W1282X-CFTR [2]; [3]): 100%
- EC50 (W1282X-CFTR [2]; [4]): 10 µM

Structure (SMILES): COc1ccc2[nH]c3c(c2c1)CCNC31CCN(S(C)(=O)=O)CC1 [Compound A145]
- Relative Vmax (%) (W1282X-CFTR [2]; [3]): 7%
- EC50 (W1282X-CFTR [2]; [4]): > 30 µM

Structure (SMILES): c1ccc(CN2CCC3(CC2)NCCc2c3[nH]c3ccccc23)cc1 [Compound A357]
- Relative Vmax (%) (W1282X-CFTR [2]; [3]): 31%
- EC50 (W1282X-CFTR [2]; [4]): 16 µM

Structure (SMILES): COc1cccc(CN2CCC3(CC2)NCCc2c3[nH]c3ccccc23)c1 [Compound A534]
- Relative Vmax (%) (W1282X-CFTR [2]; [3]): 24%
- EC50 (W1282X-CFTR [2]; [4]): 13 µM

Structure (SMILES): COc1cccc(CN2CCC3(CC2)c2[nH]c4ccccc4c2CCN3C)c1 [Compound A600]
- Relative Vmax (%) (W1282X-CFTR [2]; [3]): 4%
- EC50 (W1282X-CFTR [2]; [4]): > 30 µM

Structure (SMILES): COc1ccc2[nH]c3c(c2c1)CCNC31CCN(Cc2ccc(F)c(F)c2)CC1 [Compound A662]
- Relative Vmax (%) (W1282X-CFTR [2]; [3]): 100%
- EC50 (W1282X-CFTR [2]; [4]): 2.6 µM

Structure (SMILES): COc1ccc2[nH]c3c(c2c1)CCNC31CCN(C2CCCCC2)CC1 [Compound A714]
- Relative Vmax (%) (W1282X-CFTR [2]; [3]): 18%
- EC50 (W1282X-CFTR [2]; [4]): > 30 µM

Structure (SMILES): COc1ccc2[nH]c3c(c2c1)CCNC31CCN(C)CC1 [Compound A764]
- Relative Vmax (%) (W1282X-CFTR [2]; [3]): 6%
- EC50 (W1282X-CFTR [2]; [4]): > 30 µM

Structure (SMILES): COc1ccc2cc3c(N)nn(C(=O)c4ccccc4Cl)c3nc2c1 [Compound D001]
- increase in VX-770 current (W1282X-CFTR [1]): ~ 6 fold
- EC50 (W1282X-CFTR [1]): 15 µM
- Relative Vmax (%) (W1282X-CFTR [2]; Table 2, 100% Vmax corresponds to 20 μM ASP-11): 90%
- EC50 (W1282X-CFTR [2]; Table 2, pyrazoloquinoline analogs): 15 µM

Structure (SMILES): CC(C)c1ccc(NC(=O)C(c2ccccc2)N(C)C(=O)Cc2c[nH]c3ccccc23)cc1 (stereo not drawn) [Compound P2]
- short-circuit current response when added after VX-770 (N1303K-CFTR): did not further increase current
- short-circuit current response when added after VX-770 (Q1313X-CFTR): did not elevate current

Structure (SMILES): CCN(c1ccccc1)S(=O)(=O)c1ccc2[nH]cc(C(=O)NCc3ccccc3OC)c(=O)c2c1 [Compound P3]
- short-circuit current response when added after VX-770 (N1303K-CFTR): did not further increase current
- short-circuit current response when added after VX-770 (Q1313X-CFTR): did not elevate current

Structure (SMILES): NC(=O)c1c(NC(=O)c2ccccc2Cl)sc2c1CCCC2 [Compound P5]
- short-circuit current response when added after VX-770 (N1303K-CFTR): did not further increase current
- short-circuit current response when added after VX-770 (Q1313X-CFTR): did not elevate current

Structure (SMILES): Cc1cc(C)cc(N(Cc2ccc(Cl)cc2)S(=O)(=O)c2cccn3c(C)nnc23)c1 [W1282Xpot-C01]
- activation by two Class II potentiators added together (N1303K-CFTR; 20 μM W1282Xpot-C01 and 20 μM ASP-11, no Class I potentiator): little activation
- short-circuit current response when added after VX-770 (N1303K-CFTR): activated N1303K-CFTR

Structure (SMILES): O=c1cc(-c2ccc(O)cc2)oc2cc(O)cc(O)c12 [apigenin]
- short-circuit current response when added after VX-770 (Q1313X-CFTR): showed synergy
- short-circuit current response when added after GLPG1837 (Q1313X-CFTR; 20 μM GLPG1837): showed synergy
